Values after ≈ are worked out from the molar mass of the structure shown. Values joined by “and” are separate entries in the source; they are usually repeats but may differ in a detail not shown here. Equal values may be shown once. “Also recorded” adds a separate entry of the source. Read-outs that look alike come from different tables or passages of the source.
Tests used:
[1] = tested on: Aspergillus fumigatus (strain n°AF 980003); experiment: Antifungal activity on a clinical strain of Aspergillus fumigatus (Alamar Blue microplate test); type: cell-based; conditions: for MIC / CMI or CI80 Aspergillus fumigatus (AF980003): strain AF980003; for MIC: read-out: CMI or CI80 Aspergillus fumigatus (AF980003)
[2] = tested on: intracellular amastigote form of Leishmania mexicana; experiment: Anti-leishmanian activity on the amastigote form in peritoneal macrophages of BALB/c mice; type: cell-based; conditions: for IC50: Leishmania mexicana, Peritoneal macrophage, read-out: CI50 Intracellular amastigotes
[3] = tested on: promastigote stage of Leishmania mexicana; experiment: Antiparasitic activity on the promastigote form of Leishmania (MTT); type: cell-based
[4] = tested on: Candida albicans (strain n° CA980001); experiment: Antifungal activity on a clinical strain of Candida albicans (MTT colorimetric microplate test); type: cell-based; conditions: for MIC / CMI or CI80 Candida albicans (CA980001): strain CA980001; for MIC: read-out: CMI or CI80 Candida albicans (CA980001); for activity of inhibition of Candida albicans (in words): summary of Tables 27 to 40
[5] = tested on: Candida parapsilosis (2 strains); experiment: Antifungal activity in vitro on clinical strains of Candida: parapsilosis (2 strains); type: cell-based; conditions: for activity against Candida parapsilosis (in words): clinical strains
[6] = tested on: Candida albicans (4 strains); experiment: Antifungal activity in vitro on clinical strains of Candida: albicans (4 strains); type: cell-based; conditions: for activity against strains of Candida albicans (in words): clinical strains
[7] = tested on: Candida lusitaniae (1 strain); experiment: Antifungal activity in vitro on clinical strains of Candida: lusitaniae (1 strain); type: cell-based; conditions: for activity against Candida lusitaniae (in words): clinical strain; for CI80 on clinical strains of Candida: strain CL980001 (Candida lusitaniae)
[8] = tested on: Candida krusei (4 strains); experiment: Antifungal activity in vitro on clinical strains of Candida: krusei (4 strains); type: cell-based; conditions: for activity against Candida krusei (in words): clinical strains, b748: one strain
[9] = tested on: Candida albicans (CA98001); experiment: Antifungal activity in vivo on a model of disseminated candidiasis; parameters: species or system female Swiss mice
[10] = strain CP980001 (Candida parapsilosis)
[11] = strain CP980002 (Candida parapsilosis)
[12] = strain CA980001 (Candida albicans)
[13] = strain CA980002 (Candida albicans)
[14] = strain CA980003 (Candida albicans)
[15] = strain CA980005 (Candida albicans)
[16] = promastigotes; read-out: CI50 Leishmania mexicana Promastigotes
[17] = strain CK980001 (Candida krusei)
[18] = strain CK980002 (Candida krusei)
[19] = strain CK980003 (Candida krusei)
[20] = strain CK980004 (Candida krusei)
[21] = Test N°3, ketoconazole 20 mg/kg/d for 5 d

Row | SMILES | CI80 on clinical strains of Candida [5, 10] [nM] | CI80 on clinical strains of Candida [5, 11] [nM] | activity against strains of Candida albicans (in words) [6] | CI80 on clinical strains of Candida [6, 12] [nM] | CI80 on clinical strains of Candida [6, 13] [nM] | CI80 on clinical strains of Candida [6, 14] [nM] | CI80 on clinical strains of Candida [6, 15] [nM] | activity against Candida lusitaniae (in words) [7] | CI80 on clinical strains of Candida [7] [nM] | CI50 Leishmania mexicana Promastigotes ([3]; promastigotes) [µg/mL] | IC50 [3, 16] [nM] | CMI or CI80 Candida albicans (CA980001) [4] | MIC [4] [µM] | activity of inhibition of Candida albicans (in words) [4] | CI80 on clinical strains of Candida [8, 17] [nM] | CI80 on clinical strains of Candida [8, 18] [nM] | CI80 on clinical strains of Candida [8, 19] [nM] | CI80 on clinical strains of Candida [8, 20] [nM] | CMI or CI80 Aspergillus fumigatus (AF980003) [1] | also measured
1 | Brc1ccc(C(Cn2ccc3ccccc32)n2ccnc2)cc1 (centres unmarked) [Cpsé 84, 1-[2-(4-Bromophenyl)-2-(1H-imidazol-1-yl)ethyl]-1H-indole] | – | – | – | – | – | – | – | – | – | – | – | – | – | – | – | – | – | – | – | MIC ([1]; Aspergillus fumigatus): > 100 µM; activity against the intracellular amastigote form of Leishmania (in words) [2]: very active; IC50 ([2]; intracellular amastigote form): 3.1 ± 0.04 µg/mL (≈ 8.46 µM); activity against Leishmania mexicana (in words) [3]: most active; IC50 ([3]; Leishmania mexicana; read-out: CI50 Leishmania mexicana Promastigotes): 0.16 µg/mL and 370 nM; MIC ([4]; Candida albicans, 24 h): > 100 µM
2 | OC(Cn1ccnc1)(Cn1ccc2ccccc21)c1ccc(Br)cc1 (centres unmarked) [compound 73] | 670 ± 0 | 4650 ± 110 | active; also recorded: very active | 60 ± 2 | 630 ± 16 | 550 ± 96.3 | 530 ± 22 | very active | 630 ± 10 | 2.7 ± 0.08 (≈ 6.81 µM) | 6650 ± 220 | 0.02 µg/mL | 0.06 (≈ 0.0238 µg/mL) | most active | 650 ± 10 | 12810 ± 2220 | 92270 ± 3900 | >100000 | – | activity against Candida parapsilosis (in words) [5]: very active; MIC [1]: >100 µM; activity against Candida krusei (in words) [8]: active; also recorded: very active
3 | CC(=O)N1CCN(c2ccc(OCC3COC(Cn4ccnc4)(c4ccc(Cl)cc4Cl)O3)cc2)CC1 (centres unmarked) [Ketoconazole, ketoconazole, reference compound] | – | <10 | – | 5 | – | – | – | – | <10 | – | – | 0.005 µg/mL | – | – | – | 700 ± 20 | 800 ± 20 | <10 | – | IC50 [2]: 1.3 ± 0.2 µg/mL (≈ 2.45 µM); IC50 ([3]; Leishmania mexicana, read-out: CI50 Leishmania mexicana Promastigotes): 3 ± 0.5 µg/mL; MIC ([4]; Candida albicans, 24 h): 0.0094 µM (≈ 0.005 µg/mL); survival at D14 ([9]; Test N°1, ketoconazole 20 mg/kg/d for 5 d): 88%; survival at D14 ([9]; Test N°2, ketoconazole 10 mg/kg/d for 5 d): Ketoconazole: no survival at D14.; survival at D14 [9, 21]: 88%; survival at D18 [9, 21]: 50%; survival at D10 ([9]; Test N°4, ketoconazole 20 mg/kg/d for 5 d): 50%
4 | OC(Cn1ccnc1)(Cn1ccc2ccccc21)c1ccc(Cl)cc1 (centres unmarked) [compound 74] | 690 ± 30 | 3710 ± 1246 | very active | 61 ± 4 | 470 ± 17 | 70 ± 4.7 | 300 ± 24 | very active | 630 ± 10 | 5 ± 0.2 (≈ 14.2 µM) | 15000 ± 600 | 0.02 µg/mL | 0.07 (≈ 0.0246 µg/mL) | most active | 59290 ± 1330 | 7740 ± 130 | >100000 | >100000 | 83 ± 4 μM and 29 ± 1 μg/mL | activity against Candida parapsilosis (in words) [5]: very active
5 | OC(Cn1ccnc1)(Cn1ccc2ccccc21)c1ccc(F)cc1 (centres unmarked) [compound 76] | 4100 ± 350 | 6320 ± 140 | very active | 67 ± 5 | 610 ± 22 | 250 ± 110 | 440 ± 44 | very active | 690 ± 80 | 3 ± 0.03 (≈ 8.95 µM) | 9200 ± 90 | 0.03 µg/mL | 0.08 (≈ 0.0268 µg/mL) | most active | 65380 ± 3710 | 38050 ± 7240 | 85270 ± 324 | >100000 | 88 ± 2 μM and 30 ± 0.7 μg/mL | –
6 | OC(Cn1ccnc1)(Cn1ccc2ccccc21)c1ccc(Cl)cc1Cl (centres unmarked) [compound 75] | 1000 ± 100 | 860 ± 40 | active | <1 | 650 ± 10 | 640 ± 10 | 710 ± 10 | – | 300 ± 100 | 1.47 (≈ 3.81 µM) | 4000 | – | <0.001 | most active | 620 ± 2 | – | >1000 | 4200 ± 100 | 4 ± 0 μM and 1 ± 0 μg/mL | activity on survival at the end of the experiment (D14) (in words) ([9]; Test N°1, 20 mg/kg/d for 5 d): not on survival at the end of the experiment; activity on the survival at D4-D5 (in words) ([9]; Test N°1, 20 mg/kg/d for 5 d): slight activity; survival improved compared to the control batch ([9]; Test N°1, day 8 (D8), daily dose of 20 mg/kg): 25%; survival at D14 ([9]; Test N°2, 2 × 30 mg/kg/d for 5 d intraperitoneally): Compound 75: no survival at end of experiment (D14).; effect of treatment on the survival of the animals (in words) ([9]; Test N°2, 2 × 30 mg/kg/d for 5 d intraperitoneally, monitored 14 days (78: from D9 to D14)): ineffective; activity against Candida krusei (in words) [8]: active
7 | OC(Cn1cncn1)(Cn1cncn1)c1ccc(F)cc1F [Fluconazole, fluconazole, reference compound] | – | – | – | – | – | – | – | – | – | – | – | – | – | – | – | – | – | – | – | MIC ([4]; Candida albicans, 24 h at 37° C., MTT): 0.07 µM (≈ 0.0214 µg/mL); CMI or CI80 Candida albicans (CA980001) ([4]; 24 h at 37° C., MTT): 0.02 µg/mL; survival at D10 ([9]; mouse, in vivo): 100%
8 | CCn1ccc2cccc(C(c3ccc(F)cc3)n3ccnc3)c21 (centres unmarked) [compound 57] | – | – | – | – | – | – | – | – | – | 0.80 ± 1.3 (≈ 2.5 µM) | 2490 ± 1300 | 0.67 ± 0.02 μM and 0.21 ± 0.01 μg/mL | – | most active | – | – | – | – | 20 ± 5 μM and 6 ± 2 μg/mL | activity against Aspergillus fumigatus (in words) ([1]; summary of Tables 27 to 40): most active
9 | Clc1ccc(Cn2cc(Cn3ccnc3)c3cc(Cl)ccc32)cc1 [compound 14] | – | – | – | – | – | – | – | – | – | – | – | – | – | – | – | – | – | – | – | CMI or CI80 Aspergillus fumigatus (AF980003) ([1]; Alamar Blue): 71 ± 3 μM and 25 ± 1 μg/ml; CI50 Leishmania mexicana Promastigotes [3]: non linear; CMI or CI80 Candida albicans (CA980001) ([4]; 24 h at 37° C., MTT): 30 µg/mL; MIC ([4]; 24 h at 37° C., MTT): 85 µM (≈ 30.3 µg/mL)
